Test results taken from US20250026765A1, “SPIROHETEROCYCLE DERIVATIVE HAVING SEROTONIN RECEPTOR BINDING ACTIVITY” (Shionogi & Co., Ltd., priority 2021, published 2025).
Read-outs that look alike come from different tables or passages of the source.

Key:
[1] = target: human recombinant 5-HT2A receptor (Homo sapiens (Human), UniProt P28223); experiment: 5-HT2A receptor binding inhibition test ([3H]-Ketanserin); conditions: Jump-In HEK cell membrane, 25° C. 1.5 hours
Method in brief: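 Membranes from Jump-In HEK cells expressing the receptor were incubated with [3H]-ketanserin at about its Kd (from Scatchard analysis) in Tris-HCl pH 7.4 buffer for 1.5 h at 25° C, then filtered and counted. Non-specific binding was defined with 500 μmol/L serotonin, and Ki was taken from dose-response curves.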

[2] = target: human recombinant 5-HT2C receptor (Homo sapiens (Human), UniProt P28335); experiment: 5-HT2C receptor binding inhibition test ([3H]-Mesulergine); conditions: Jump-In HEK cell membrane, 37° C. 2 hours
Method in brief: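 Radioligand displacement on HEK membranes expressing human recombinant 5-HT2C (0.5 μg/well), [3H]-mesulergine near its Kd, in pH 7.4 Tris-HCl buffer with NaCl, MgCl2, KCl, CaCl2 and 0.1% BSA, 2 h at 37° C. Bound radioactivity measured after GF/B filtration; non-specific binding defined with 500 μmol/L serotonin, Ki from dose-response curve.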

[3] = read-out: human serotonin 5-HT2A receptor binding activity Ki
[4] = read-out: human serotonin 5-HT2C receptor binding activity Ki

Sequence of human recombinant 5-HT2A receptor (P28223 whole entry): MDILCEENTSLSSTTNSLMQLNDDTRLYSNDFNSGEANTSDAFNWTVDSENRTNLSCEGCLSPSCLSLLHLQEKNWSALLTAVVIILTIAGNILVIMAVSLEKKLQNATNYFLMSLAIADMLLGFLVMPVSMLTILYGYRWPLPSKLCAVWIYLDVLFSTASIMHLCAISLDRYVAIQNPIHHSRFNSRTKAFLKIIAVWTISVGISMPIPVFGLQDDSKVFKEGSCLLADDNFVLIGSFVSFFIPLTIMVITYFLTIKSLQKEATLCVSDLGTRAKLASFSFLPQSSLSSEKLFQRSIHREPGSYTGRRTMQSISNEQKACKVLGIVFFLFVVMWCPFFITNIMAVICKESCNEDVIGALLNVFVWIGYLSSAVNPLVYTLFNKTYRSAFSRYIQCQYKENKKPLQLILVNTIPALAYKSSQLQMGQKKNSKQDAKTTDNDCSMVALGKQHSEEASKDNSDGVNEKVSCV
Sequence of human recombinant 5-HT2C receptor (P28335 33-458): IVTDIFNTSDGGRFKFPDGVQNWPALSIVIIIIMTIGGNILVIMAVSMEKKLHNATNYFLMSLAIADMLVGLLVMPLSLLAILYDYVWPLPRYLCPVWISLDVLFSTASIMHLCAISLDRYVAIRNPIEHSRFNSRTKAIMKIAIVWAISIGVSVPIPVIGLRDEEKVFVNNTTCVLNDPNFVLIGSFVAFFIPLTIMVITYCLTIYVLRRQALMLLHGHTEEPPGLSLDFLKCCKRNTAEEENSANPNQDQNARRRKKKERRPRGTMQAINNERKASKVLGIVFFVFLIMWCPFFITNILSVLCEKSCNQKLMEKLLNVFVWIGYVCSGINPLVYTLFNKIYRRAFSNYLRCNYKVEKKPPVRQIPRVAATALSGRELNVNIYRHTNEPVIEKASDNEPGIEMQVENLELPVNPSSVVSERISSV

Row | SMILES | Ki [1, 3] | Ki [2, 4] | Ki ([1]; read-out: h-5-HT2A Ki) | Ki ([2]; read-out: h-5-HT2C Ki)
1 | Cc1nc(CN(Cc2nc3cc(Cl)ccc3o2)C2=NOC3(CCN(C)CC3)N2)co1 [Compound I-089] | 1.49 nM | 5.46 nM |  | 
2 | Cc1nc(CN(Cc2cn3ccccc3n2)C2=NOC3(CCN(C)CC3)N2)co1 [Compound I-091] |  |  | 10 to 100 nM | 100 to 500 nM
3 | CCCCOc1ccc(CN(Cc2coc(C)n2)C2=NOC3(CCN(C)CC3)N2)c(Br)c1 [Compound I-092] |  |  | < 10 nM | < 10 nM
4 | Cc1nc(CN(Cc2ccc3c(c2)nnn3C)C2=NOC3(CCN(C)CC3)N2)co1 [Compound I-093] |  |  | 100 to 500 nM | 100 to 500 nM
5 | Cc1nc(CN(Cc2nc3ccccc3o2)C2=NOC3(CCN(C)CC3)N2)co1 [Compound I-094] |  |  | 10 to 100 nM | 10 to 100 nM
6 | Cc1nc(CN(Cc2cnc3ccccc3c2)C2=NOC3(CCN(C)CC3)N2)co1 [Compound I-095] |  |  | 10 to 100 nM | 100 to 500 nM
7 | Cc1nc(CN(Cc2ccc3ncccc3c2)C2=NOC3(CCN(C)CC3)N2)co1 [Compound I-096] |  |  | < 10 nM | 10 to 100 nM
8 | Cc1nc(CN(Cc2ccc3ccccc3c2)C2=NOC3(CCN(C)CC3)N2)co1 [Compound I-097] |  |  | < 10 nM | < 10 nM
9 | Cc1nc(CN(Cc2nc3ccccc3s2)C2=NOC3(CCN(C)CC3)N2)co1 [Compound I-098] |  |  | < 10 nM | 10 to 100 nM
10 | Cc1nc(CN(Cc2cc3ccccc3o2)C2=NOC3(CCN(C)CC3)N2)co1 [Compound I-099] | 0.96 nM | 3.08 nM |  | 
11 | CC(C)COc1ccc(CN(Cc2ccn(C3CC3)n2)C2=NOC3(CCN(C)CC3)N2)cc1 [Compound I-100] |  |  | < 10 nM | 10 to 100 nM
12 | Cc1ccc2cc(CN(Cc3coc(C)n3)C3=NOC4(CCN(C)CC4)N3)sc2c1 [Compound I-101] |  |  | < 10 nM | < 10 nM
13 | Cc1nc(CN(Cc2cc3ccc(Br)cc3s2)C2=NOC3(CCN(C)CC3)N2)co1 [Compound I-102] |  |  | < 10 nM | < 10 nM
14 | CN1CCC2(CC1)NC(N(Cc1cnn(C)n1)Cc1ccc(OCC(F)(F)C(F)(F)F)cc1F)=NO2 [Compound I-103] |  |  | < 10 nM | < 10 nM
15 | CC(C)COc1ccc(CN(Cc2cnn(C)n2)C2=NOC3(CCN(C)CC3)N2)c(F)c1 [Compound I-106] |  |  | < 10 nM | < 10 nM
16 | CC(C)COc1ccc(CN(Cc2cnn(C)n2)C2=NOC3(CCN(C)CC3)N2)cc1F [Compound I-107] |  |  | < 10 nM | < 10 nM
17 | CN1CCC2(CC1)NC(N(Cc1coc(C3CC3)n1)Cc1ccc(OCC(F)(F)F)cc1F)=NO2 [Compound I-108] |  |  | < 10 nM | < 10 nM
18 | CCCc1ccc(CN(Cc2coc(C)n2)C2=NOC3(CCN(C)CC3)N2)c(F)c1 [Compound I-109] |  |  | < 10 nM | < 10 nM
19 | CCCc1ccc(CN(Cc2coc(C)n2)C2=NOC3(CCN(C)CC3)N2)cc1F [Compound I-110] |  |  | < 10 nM | < 10 nM

Row | SMILES | Ki [1, 3] | Ki [2, 4] | Ki ([1]; read-out: h-5-HT2A Ki) | Ki ([2]; read-out: h-5-HT2C Ki)
20 | CCCCOc1ccc(CN(Cc2cnn(C)n2)C2=NOC3(CCN(C)CC3)N2)cc1F [Compound I-111] |  |  | < 10 nM | < 10 nM
21 | CCCCOc1ccc(CN(Cc2cnn(C)n2)C2=NOC3(CCN(C)CC3)N2)c(F)c1 [Compound I-112] |  |  | < 10 nM | < 10 nM
22 | CN1CCC2(CC1)NC(N(Cc1ccc(OCC(F)(F)F)c(F)c1)Cc1coc(C3CC3)n1)=NO2 [Compound I-116] |  |  | < 10 nM | < 10 nM
23 | Cc1nc(CN(Cc2ccc(OCC(C)C)cc2)C2=NOC3(CCN(C)CC3)N2)c(C)o1 [Compound I-117] |  |  | 10 to 100 nM | 10 to 100 nM
24 | CC(C)COc1ccc(CN(Cc2coc(-c3ccccc3)n2)C2=NOC3(CCN(C)CC3)N2)cc1 [Compound I-118] |  |  | 100 to 500 nM | 100 to 500 nM
25 | Cc1nc(CN(Cc2ccc(Cc3ccccc3)cc2)C2=NOC3(CCN(C)CC3)N2)co1 [Compound I-119] |  |  | < 10 nM | < 10 nM
26 | COc1ccc(CN(Cc2coc(C)n2)C2=NOC3(CCN(C)CC3)N2)cn1 [Compound I-120] |  |  | 10 to 100 nM | 10 to 100 nM
27 | COc1ccc(CN(Cc2coc(C)n2)C2=NOC3(CCN(C)CC3)N2)nc1 [Compound I-121] |  |  | 10 to 100 nM | 10 to 100 nM
28 | Cc1nc(CN(Cc2csc3ccccc23)C2=NOC3(CCN(C)CC3)N2)co1 [Compound I-122] |  |  | < 10 nM | < 10 nM
29 | Cc1nc(CN(Cc2cc3ccccc3s2)C2=NOC3(CCN(C)CC3)N2)co1 [Compound I-123] |  |  | < 10 nM | < 10 nM
30 | CCOCc1ccc(CN(Cc2coc(C)n2)C2=NOC3(CCN(C)CC3)N2)cc1 [Compound I-124] |  |  | 10 to 100 nM | 10 to 100 nM
31 | CCCOc1ccc(CN(Cc2coc(C)n2)C2=NOC3(CCN(C)CC3)N2)c(Cl)c1 [Compound I-126] |  |  | < 10 nM | < 10 nM
32 | Cc1nc(CN(Cc2ccc(OCC(C)C)c(F)c2)C2=NOC3(CCN(C)CC3)N2)co1 [Compound I-127] |  |  | < 10 nM | < 10 nM
33 | CCCOc1ccc(CN(Cc2coc(C)n2)C2=NOC3(CCNCC3)N2)c(Cl)c1 [Compound I-129] |  |  | < 10 nM | < 10 nM
34 | Cc1nc(CN(Cc2ccc(OCC(C)C)c(F)c2)C2=NOC3(CCNCC3)N2)co1 [Compound I-130] | 1.29 nM | 0.535 nM |  | 
35 | Cc1nc(CN(Cc2ccc(OCC(C)C)cc2F)C2=NOC3(CCNCC3)N2)co1 [Compound I-131] |  |  | < 10 nM | < 10 nM
36 | CN1CCC2(CC1)NC(N(Cc1ccc(OCC(F)(F)F)cc1)Cc1coc(CF)n1)=NO2 [Compound I-132] |  |  | < 10 nM | < 10 nM
37 | CCCCc1ccc(CN(Cc2cnn(C)n2)C2=NOC3(CCN(C)CC3)N2)cc1 [Compound I-133] |  |  | < 10 nM | < 10 nM
38 | CCCCOc1ccc(CN(Cc2coc(C)n2)C2=NOC3(CCNCC3)N2)cc1 [Compound I-134] |  |  | < 10 nM | < 10 nM
